Literature values as cited in patent US6713069B1, “Compositions and methods for detecting, preventing, and treating African Hemorrhagic Fever” (Board of Supervisors of Louisiana State University and …, priority 1996, dated 2004).

Test system: HIV

Substance: enfuvirtide
- inhibition of HIV infection and fusion: inhibit HIV infection and fusion at very low dosages
